ChEMBL document CHEMBL5335789, “Tea-break with epigallocatechin gallate derivatives - Powerful polyphenols of great potential for medicine” (Eur J Med Chem, 2023)
pIC50: −log10 of the molar value. Each block holds one molecule with its values, some of them ahead of it.

Key:
MDA-MB-231 [1] = experiment: Antitumor activity against human MDA-MB-231 cells xenografted in athymic nude mouse assessed as the inhibition of tumor growth at 50 mg/kg, sc administered daily once for 31 days relative to control; type: functional; design: scale not given: the % may be the effect or the level left; conditions: time 31 day
U-937 [2] = experiment: Antiproliferative activity against human U-937 cells assessed as cell growth inhibition measured after 72 hrs; type: functional, cell-based; conditions: U-937, 72 h
U-937 [3] = experiment: Antiproliferative activity against human U-937 cells measured upto 72 hrs; type: functional, cell-based; conditions: U-937, 72 h
LNCaP = experiment: Antiproliferative activity against human LNCaP assessed as reduction in cell viability incubated for 72 hrs by MTT assay; type: functional, cell-based
MDA-MB-231 [4] = experiment: Cytotoxicity against human MDA-MB-231 cells assessed as cell growth inhibition incubated for 48 hrs by SRB assay; type: functional, cell-based; conditions: MDA-MB-231, 48 h
[5] = Inhibition of Streptococcus sobrinus glycosyl transferase
HCC827 = experiment: Antiproliferative activity against human HCC827 cells assessed as reduction in cell viability incubated for 72 hrs by MTT assay; type: functional, cell-based; conditions: HCC827, 72 h
NSCLC = experiment: Antiproliferative activity against human NSCLC cells assessed as cell growth inhibition incubated for 72 hrs by MTT assay; type: functional, cell-based
U-266 = experiment: Anticancer activity against human U-266 cells assessed as inhibition of cell growth; type: functional, cell-based
HL-60 = experiment: Cytotoxicity against human HL-60 cells assessed as reduction in cell growth incubated for 48 hrs by MTT assay; type: functional, cell-based; conditions: HL-60, 48 h
SMMC-7721 = experiment: Cytotoxicity against human SMMC-7721 cells assessed as reduction in cell viability incubated for 48 hrs by MTT assay; type: functional, cell-based; conditions: SMMC-7721, 48 h
A549 [6] = experiment: Cytotoxicity against human A549 cells assessed as reduction in cell viability incubated for 48 hrs by MTT assay; type: functional, cell-based; conditions: A549, 48 h
MCF7 [7] = experiment: Cytotoxicity against human MCF7 cells assessed as reduction in cell viability incubated for 48 hrs by MTT assay; type: functional, cell-based; conditions: MCF7, 48 h
BEAS-2B = experiment: Cytotoxicity against human BEAS-2B assessed as reduction in cell viability incubated for 72 hrs by MTT assay; type: functional, cell-based
MDA-MB-231 [8] = experiment: Anticancer activity against human MDA-MB-231 cells assessed as reduction in cell viability measured after 72 hrs by MTT assay; type: functional
NCI-H292 = experiment: Antiproliferative activity against human NCI-H292 cells expressing wild type EGFR assessed as reduction in cell viability incubated for 48 hrs by MTT assay; type: functional, cell-based; conditions: NCI-H292, 48 h
NCI-H441 = experiment: Antiproliferative activity against human NCI-H441 cells expressing wild type EGFR assessed as reduction in cell viability incubated for 48 hrs by MTT assay; type: functional, cell-based; conditions: NCI-H441, 48 h
[9] = Antiproliferative activity against human NCI-H1781 cells expressing wild type EGFR assessed as reduction in cell viability incubated for 48 hrs by MTT assay; type: functional, cell-based; conditions: NCI-H1781, 48 h
A549 [10] = experiment: Antiproliferative activity against human A549 cells expressing wild type EGFR assessed as reduction in cell viability incubated for 48 hrs by MTT assay; type: functional, cell-based; conditions: A549, 48 h
SK-BR-3 [11] = experiment: Antiproliferative activity against human SK-BR-3 cells assessed as inhibition of cell proliferation incubated for 3 days by sulforhodamine B colorimetric assay; type: functional, cell-based; conditions: SK-BR-3, 72 h
HCT-116 = experiment: Cytotoxicity against human HCT-116 cells assessed as reduction in cell growth measured after 24 hrs by MTT assay; type: functional, cell-based; conditions: HCT-116, 24 h
PANC-1 = experiment: Cytotoxicity against human PANC-1 cells assessed as reduction in cell viability measured after 24 hrs by MTT assay; type: functional, cell-based; conditions: PANC-1, 24 h
A-431 = experiment: Cytotoxicity against human A-431 cells assessed as reduction in cell growth measured after 24 hrs by MTT assay; type: functional, cell-based; conditions: A-431, 24 h
SK-OV-3 = experiment: Cytotoxicity against human SK-OV-3 cells assessed as reduction in cell growth measured after 24 hrs by MTT assay; type: functional, cell-based; conditions: SK-OV-3, 24 h
MCF7 [12] = experiment: Cytotoxicity against human MCF7 cells assessed as reduction in cell growth incubated for 24 hrs by MTT assay; type: functional, cell-based; conditions: MCF7, 24 h
NCI-H460 = experiment: Cytotoxicity against human NCI-H460 cells assessed as reduction in cell viability incubated for 24 hrs by MTT assay; type: functional, cell-based; conditions: NCI-H460, 24 h
SK-BR-3 [13] = experiment: Cytotoxicity against human SK-BR-3 cells assessed as reduction in cell growth incubated for 24 hrs by MTT assay; type: functional, cell-based; conditions: SK-BR-3, 24 h
ZR-75-1 = experiment: Cytotoxicity against human ZR-75-1 cells assessed as reduction in cell viability incubated for 24 hrs by MTT assay; type: functional, cell-based; conditions: ZR-75-1, 24 h
MDA-MB-231 [14] = experiment: Cytotoxicity against human MDA-MB-231 cells assessed as reduction in cell viability incubated for 24 hrs by MTT assay; type: functional, cell-based; conditions: MDA-MB-231, 24 h
MCF7 [15] = experiment: Antiproliferative activity against human MCF7 cells assessed as reduction in cell viability incubated for 72 hrs by MTT assay; type: functional, cell-based; conditions: MCF7, 72 h
Jurkat = experiment: Antiproliferative activity against human Jurkat T cells assessed as inhibition of cell growth at 50 uM incubated for 24 hrs relative to control; type: functional; design: scale not given: the % may be the effect or the level left

Compound: CC(=O)Oc1cc(OC(C)=O)c2c(c1)O[C@H](c1cc(OC(C)=O)c(OC(C)=O)c(OC(C)=O)c1)[C@H](OC(=O)c1cc(OC(C)=O)c(OC(C)=O)c(OC(C)=O)c1)C2
Activity (MDA-MB-231 [1]): 54%

pIC50 (U-937 [2]): 4.60
pIC50 (U-937 [3]): 6.14
Compound: O=C(Nc1ccccc1NC(=O)c1ccc(O)c(O)c1)c1ccc(O)c(O)c1

pIC50 (LNCaP): 4.89
Compound: O=C(O[C@@H]1Cc2c(F)cc(F)cc2O[C@@H]1c1ccc(O)c(O)c1)c1cc(O)c(O)c(O)c1

Compound: O=C(Oc1cc(O)c2ccccc2c1)c1cc(O)c(O)c(O)c1
pIC50 (MDA-MB-231 [4]): 4.39

pIC50 [5]: 5.11
Compound: O=C(O[C@@H]1Cc2c(O)cc(O)cc2O[C@@H]1c1cc(O)c(=O)c2c(O)c(O)cc([C@H]3Oc4cc(O)cc(O)c4C[C@H]3O)c2c1)c1cc(O)c(O)c(O)c1 [THEAFLAVIN MONOGALLATES]

pIC50 (HCC827): ~4.70
Compound: COC(=O)c1c(O)cc2c(c1O)C[C@@H](OC(=O)c1cc(O)c(O)c(O)c1)[C@@H](c1cc(O)c(O)c(O)c1)O2
pIC50 (NSCLC): ~4.70

Compound: COc1cc([C@H]2Oc3cccc(OC)c3C[C@H]2OC(=O)c2cc(O)c(O)c(O)c2)cc(O)c1O
pIC50 (U-266): 6.10

Compound: CCCC(=O)OC[C@H]1O[C@@H](Oc2c(O)cc(C(=O)O[C@@H]3Cc4c(O)cc(O)cc4O[C@@H]3c3cc(O)c(O)c(O)c3)cc2O)[C@H](OC(=O)CCC)[C@@H](OC(=O)CCC)[C@H]1OC(=O)CCC
pIC50 (HL-60): 4.64
pIC50 (SMMC-7721): 4.64
pIC50 (A549 [6]): 4.64
pIC50 (MCF7 [7]): 4.64
pIC50 (BEAS-2B): 4.40

Compound: CC(=O)Oc1cc(OC(C)=O)c2c(c1)O[C@H](c1cc(OC(C)=O)c(OC(C)=O)c(OC(C)=O)c1)[C@H](OC(=O)c1cccc(F)c1)C2
Activity (MDA-MB-231 [8]): 70%

pIC50 (NCI-H292): 4.52
pIC50 (NCI-H441): 4.52
pIC50 (A549 [10]): 4.52
Compound: O=C(O[C@@H]1Cc2c(O)cc(O)cc2O[C@@H]1c1cc(O)c(O)c(O)c1)c1cc(O)c(OCc2cn([C@H]3O[C@H](CO)[C@@H](O)[C@H](O)[C@H]3O)nn2)c(O)c1
pIC50 [9]: 4.52

pIC50 (SK-BR-3 [11]): 5.00
Compound: O=C(Oc1ccc(-c2ccc(OC(=O)c3cc(O)c(O)c(O)c3)cc2)cc1)c1cc(O)c(O)c(O)c1
pIC50 (HCT-116): 5.00
pIC50 (PANC-1): 5.00
pIC50 (A-431): 5.00
pIC50 (SK-OV-3): 5.00
pIC50 (MCF7 [12]): 5.00
pIC50 (NCI-H460): 5.00
pIC50 (SK-BR-3 [13]): 5.70
pIC50 (ZR-75-1): 5.70
pIC50 (MDA-MB-231 [14]): 5.70
pIC50 (MDA-MB-231 [4]): 4.35

pIC50 (MCF7 [15]): 6.11
Compound: COc1cccc(C(=O)O[C@H]2COc3cc(OC)cc(OC)c3C2)c1

Compound: CC(=O)Oc1cc(OC(C)=O)c2c(c1)O[C@H](c1cc(OC(C)=O)c(OC(C)=O)c(OC(C)=O)c1)[C@H](OC(=O)c1ccc(F)c(F)c1)C2
Activity (MDA-MB-231 [8]): 33%
Activity (Jurkat): 90%

Compound: O=C(Oc1ccc(OC(=O)c2cc(O)c(O)c(O)c2)c2ccccc12)c1cc(O)c(O)c(O)c1
pIC50 (MDA-MB-231 [4]): 3.98

pIC50 (U-937 [2]): 5.77
pIC50 (U-937 [3]): 6.17
Compound: O=C(Nc1cccc(NC(=O)c2cccc(O)c2O)c1)c1cccc(O)c1O
